Molecules are shown by their SMILES. Bounds are passed on as bounds.

Holding throughout (format): cell-based
Experiment [1] relates to SW480 colon cancer cells. Put plainly: Cell viability assay (CellTiter-Blue) in SW480 colon cancer cells. To be noted: Homo sapiens, 96 h, four days; for EC50: CellTiter-Blue; for inhibition at 10 µM: read-out: percent inhibition at 10 μM (given for EC50 of >10 μM). The essentials:
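Approximately 2×10^3 SW480 cells per well are seeded with compound (8 points, threefold steps, top 10 μM) and incubated four days at 37 °C. CellTiter-Blue is then added for about 3 h and fluorescence read. Non-linear regression gives EC50; for values beyond 10 μM, percent inhibition at that concentration is listed.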
(Alamar Blue is a resazurin reagent that responds to reducing activity.)

Experiment [2] deals with primary human fibroblasts derived from IPF patients (LL29 cells) treated with TGF-β1; α-smooth muscle actin (αSMA). Put plainly: Inhibition of the fibrotic process: αSMA staining in TGF-β1 treated primary human fibroblasts from IPF patients (LL29 cells). To be noted: Fibroblast, 96 h, TGF-β1 20 ng/mL, 4 days; for EC50: % cells positive for αSMA; for inhibition at 10 µM: αSMA, read-out: percent inhibition at 10 μM (given for EC50 of >10 μM). The gist of the method:
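Compound dilutions from 10 μM down to […] are dispensed, LL29 cells added in F12 with 1% FBS, and TGF-β1 (20 ng/mL) follows after 1 h. After 4 days, live-cell αSMA positivity is measured by immunofluorescence and normalized to TGF-β1-treated wells to derive EC50.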

Experiment [3] concerns IL-6 (THP-1 cells). Put plainly: Inhibition of IL-6 in LPS-stimulated THP-1 human monocyte cells (HTRF). The following applies: for EC50: inhibition of IL-6 in LPS-stimulated THP-1 cells, HTRF, 10-point dose-response starting from 10 μM; for inhibition at 10 µM: IL-6 assay in LPS-stimulated THP-1 cells, given only where EC50 >10 μM, meaning not given (top concentration 10 μM), read-out: percentage given in parentheses after EC50 >10. The essentials: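 THP-1 cells, serum-reduced (1% FBS) for 24 h, were preincubated with compound (10-point 1:3 series from 10 μM, 0.1% DMSO) for 2 h, then stimulated with 500 ng/mL LPS for 22 h at 37° C. IL-6 was read by HTRF (665/620 nm ratio) and normalized to DMSO. EC50 from four-parameter fit; % inhibition at 10 μM given if EC50 >10 μM.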
For orientation: Time-resolved FRET reads energy transfer from a long-lived donor to a nearby acceptor.

As for `c1cncc(-c2cccc3[nH]c(-c4n[nH]c5cnc(-c6cncc(CN7CCCC7)c6)cc45)cc23)c1` [Compound 98, 3-(4-(Pyridin-3-yl)-1H-indol-2-yl)-5-(5-(pyrrolidin-1-ylmethyl)pyridin-3-yl)-1H-pyrazolo[3,4-c]pyridine], the EC50 (commonly the concentration needed to bring the measured effect to its halfway point) in experiment [1] came to 7.22 µM; in experiment [2], 1.61 µM; in experiment [3], 1.52 µM.
The corresponding values for `O=C(Nc1cncc(-c2cc3c(-c4cc5c(-c6cccnc6)cccc5[nH]4)n[nH]c3cn2)c1)C1CC1` [Compound 104, N-(5-(3-(4-(Pyridin-3-yl)-1H-indol-2-yl)-1H-pyrazolo[3,4-c]pyridin-5-yl)pyridin-3-yl)cyclopropanecarboxamide] are 1.47 µM, 0.189 µM and 0.226 µM.
`Cc1ccncc1-c1cc2c(-c3cc4c(-c5ccncc5)cccc4[nH]3)n[nH]c2cn1` [Compound 117, 5-(4-Methylpyridin-3-yl)-3-(4-(pyridin-4-yl)-1H-indol-2-yl)-1H-pyrazolo [3,4-c]pyridine]: the inhibition at 10 µM stood at 16.6% in experiment [1] and 53% in experiment [3]. Besides, the results for the EC50 in experiment [1], in experiment [2] and in experiment [3] were above 10 µM, 1.04 µM and above 10 µM, respectively.
Regarding `CC(C)(C)C(=O)Nc1cncc(-c2cc3c(-c4cc5c(-c6ccncc6)cccc5[nH]4)n[nH]c3cn2)c1` [Compound 120, N-(5-(3-(4-(Pyridin-4-yl)-1H-indol-2-yl)-1H-pyrazolo[3,4-c]pyridin-5-yl)pyridin-3-yl)pivalamide], the inhibition at 10 µM in experiment [1] is 32.2%. The EC50 was above 10 µM in experiment [1], 1.03 µM in experiment [2] and 2.5 µM in experiment [3].
Turning to `CC(C)(C)CC(=O)Nc1cncc(-c2cc3c(-c4cc5c(-c6ccncc6)cccc5[nH]4)n[nH]c3cn2)c1` [Compound 128, 3,3-Dimethyl-N-(5-(3-(4-(pyridin-4-yl)-1H-indol-2-yl)-1H-pyrazolo[3,4-c]pyridin-5-yl)pyridin-3-yl)butanamide], the inhibition at 10 µM was determined as 14% in experiment [1], 23.7% in experiment [2] and 0% in experiment [3]. Also, the EC50 in experiment [1], in experiment [2] and in experiment [3] was above 10 µM throughout.
Take `O=C(Nc1cncc(-c2cc3c(-c4cc5c(-c6ccncc6)cccc5[nH]4)n[nH]c3cn2)c1)C1CCC1` [Compound 133, N-(5-(3-(4-(Pyridin-4-yl)-1H-indol-2-yl)-1H-pyrazolo[3,4-c]pyridin-5-yl)pyridin-3-yl)cyclobutanecarboxamide]: the inhibition at 10 µM in experiment [1] is 45.9%. The EC50 in experiment [1] was above 10 µM; in experiment [2], 0.391 µM; in experiment [3] it was 0.251 µM.
Take `c1cc(-c2ccncc2)c2cc(-c3n[nH]c4cnc(-c5cncnc5)cc34)[nH]c2c1` [Compound 139, 3-(4-(Pyridin-4-yl)-1H-indol-2-yl)-5-(pyrimidin-5-yl)-1H-pyrazolo[3,4-c]pyridine]: the inhibition at 10 µM in experiment [1] came out at 15.5%; in experiment [3], 3%. Also, the EC50 was above 10 µM in experiment [1], 0.238 µM in experiment [2] and above 10 µM in experiment [3].
As for `Nc1cncc(-c2cc3c(-c4cc5c(-c6ccccn6)cccc5[nH]4)n[nH]c3cn2)c1` [Compound 143, 5-(3-(4-(Pyridin-2-yl)-1H-indol-2-yl)-1H-pyrazolo[3,4-c]pyridin-5-yl) pyridin-3-amine], the EC50 in experiment [1] came out at 1.92 µM; in experiment [2], 0.098 µM; in experiment [3] it was 0.549 µM.
The corresponding values for `Cc1ccncc1-c1cc2c(-c3cc4c(-c5ccccn5)cccc4[nH]3)n[nH]c2cn1` [Compound 145, 5-(4-Methylpyridin-3-yl)-3-(4-(pyridin-2-yl)-1H-indol-2-yl)-1H-pyrazolo [3,4-c]pyridine] are 0.814 µM, 0.223 µM and 2.83 µM.
For `CN(C)Cc1cncc(-c2cc3c(-c4cc5c(-c6ccccn6)cccc5[nH]4)n[nH]c3cn2)c1` [Compound 153, N,N-Dimethyl-1-(5-(3-(4-(pyridin-2-yl)-1H-indol-2-yl)-1H-pyrazolo[3,4-c]pyridin-5-yl)pyridin-3-yl)methanamine], in that order: 2.06 µM, 0.461 µM and 0.989 µM.
In the case of `CCCCC(=O)Nc1cncc(-c2cc3c(-c4cc5c(-c6ccccn6)cccc5[nH]4)n[nH]c3cn2)c1` [Compound 159, N-(5-(3-(4-(Pyridin-2-yl)-1H-indol-2-yl)-1H-pyrazolo[3,4-c]pyridin-5-yl)pyridin-3-yl)pentanamide], the EC50 in experiment [1] came to 2.81 µM; in experiment [2], 0.269 µM; in experiment [3], 1.56 µM.
For the compound `O=C(Nc1cncc(-c2cc3c(-c4cc5c(N6CCCCC6)cccc5[nH]4)n[nH]c3cn2)c1)C1CC1` [Compound 188, N-(5-(3-(4-(Piperidin-1-yl)-1H-indol-2-yl)-1H-pyrazolo[3,4-c]pyridin-5-yl)pyridin-3-yl)cyclopropanecarboxamide], the inhibition at 10 µM in experiment [1] turned out to be 25.3%. Besides, the EC50 in experiment [1] was above 10 µM; in experiment [2], 1.37 µM; in experiment [3], 4.96 µM.
On to `FC1(F)CCN(Cc2cncc(-c3cc4c(-c5cc6c(N7CCCCC7)cccc6[nH]5)n[nH]c4cn3)c2)C1` [Compound 194, 5-(5-((3,3-Difluoropyrrolidin-1-yl)methyl)pyridin-3-yl)-3-(4-(piperidin-1-yl)-1H-indol-2-yl)-1H-pyrazolo[3,4-c]pyridine], for which the EC50 is 6.21 µM in experiment [1], 0.694 µM in experiment [2] and above 10 µM in experiment [3]. Moreover, the inhibition at 10 µM in experiment [3] turned out to be 0%.
In the case of `CC(C)C(=O)Nc1cncc(-c2cc3c(-c4cc5c(N6CCN(C)CC6)cccc5[nH]4)n[nH]c3cn2)c1` [Compound 233], the EC50 in experiment [1] is 1.95 µM; in experiment [2], above 10 µM; in experiment [3], 0.753 µM. The inhibition at 10 µM in experiment [2] worked out at 74.5%.
As for `CN1CCN(c2cccc3[nH]c(-c4n[nH]c5cnc(-c6cncc(NC(=O)C7CCC7)c6)cc45)cc23)CC1` [Compound 245], in experiment [1], the inhibition at 10 µM was 64.6%. Also, the results for the EC50 in experiment [1], in experiment [2] and in experiment [3] were above 10 µM, 4.61 µM and 0.967 µM, respectively.
On to `O=C(Nc1cncc(-c2cc3c(-c4cc5ccccc5[nH]4)n[nH]c3cn2)c1)c1ccccc1` [Compound 263, N-(5-(3-(1H-Indol-2-yl)-1H-pyrazolo[3,4-c]pyridin-5-yl)pyridin-3-yl) benzamide], for which the EC50 in experiment [1] worked out at 4.92 µM; in experiment [2], 0.065 µM; in experiment [3], 1.19 µM.
For the compound `c1ccc2[nH]c(-c3n[nH]c4cnc(-c5cncc(CN6CCCC6)c5)cc34)cc2c1` [Compound 266, 3-(1H-Indol-2-yl)-5-(5-(pyrrolidin-1-ylmethyl)pyridin-3-yl)-1H-pyrazolo [3,4-c]pyridine], the EC50 in experiment [1] was found to be 1.64 µM; in experiment [2], 0.143 µM; in experiment [3], 0.424 µM.
Turning to `CC(C)(C)CC(=O)Nc1cncc(-c2cc3c(-c4cc5ccccc5[nH]4)n[nH]c3cn2)c1` [Compound 268, N-(5-(3-(1H-Indol-2-yl)-1H-pyrazolo[3,4-c]pyridin-5-yl)pyridin-3-yl)-3,3-dimethylbutanamide], the inhibition at 10 µM in experiment [1] stood at 4.5%; in experiment [3] it was 25.1%. In addition, the figures for the EC50 in experiment [1], in experiment [2] and in experiment [3] were above 10 µM, 9.98 µM and above 10 µM, respectively.
With `O=C(Nc1cncc(-c2cc3c(-c4cc5ccccc5[nH]4)n[nH]c3cn2)c1)C1CCCCC1` [Compound 275, N-(5-(3-(1H-Indol-2-yl)-1H-pyrazolo[3,4-c]pyridin-5-yl)pyridin-3-yl) cyclohexanecarboxamide], the inhibition at 10 µM in experiment [1] is 35.4%. Besides, the EC50 in experiment [1] was above 10 µM; in experiment [2] it was 3.27 µM; in experiment [3], 0.092 µM.
Take `c1cc(-c2ccoc2)c2cc(-c3n[nH]c4cnc(-c5cncc(CN6CCCCC6)c5)cc34)[nH]c2c1` [Compound 323, 3-(4-(Furan-3-yl)-1H-indol-2-yl)-5-(5-(piperidin-1-ylmethyl)pyridin-3-yl)-1H-pyrazolo[3,4-c]pyridine]: the EC50 in experiment [1] is 2.34 µM; in experiment [2], 0.261 µM; in experiment [3], 3.49 µM.
`CN(C)CCNc1cc(F)cc(-c2cccc3[nH]c(-c4n[nH]c5cnc(-c6cncc(N)c6)cc45)cc23)c1` [Compound 451, N^1-(3-(2-(5-(5-Aminopyridin-3-yl)-1H-pyrazolo[3,4-c]pyridin-3-yl)-1H-indol-4-yl)-5-fluorophenyl)-N^2,N^2-dimethylethane-1,2-diamine]: the values for the EC50 in experiment [1], in experiment [2] and in experiment [3] were 0.659 µM, 0.046 µM and 0.091 µM, respectively.

Source of the values: patent publication US10166218B2, “3-(1H-indol-2-yl)-1H-pyrazolo[3,4-C]pyridines and therapeutic uses thereof” (Samumed, LLC, priority 2015, dated 2019).
